Read-outs that look alike come from different tables or passages of the source. Non-standard residues stand in square brackets, D forms with d. Residues, ends and D or L forms follow the SMILES beside them. *: point of attachment. Sta = CC(C)C[C@H](N)[C@@H](O)CC(=O)O; Isovaleryl = CC(C)CC(=O)*; Nle = CCCC[C@H](N)C(=O)O; Cbz = O=C(OCc1ccccc1)*
Assays:
Rhomboid-1 = biological target: T1, Rhomboid-1 (Drosophila melanogaster, UniProt P20350); assay: Rhomboid-1 and Star dependent cleavage of GFP-Spitz in transfected COS cells (western blot of medium); assay type: cell-based
T1 construct: When co-expressed with Star and full-length Rhomboid-1 in the COS cell Spitz cleavage assay; expressed in transfected cells; host or cells: COS cells, pcDNA3.1 constructs, transient transfection
T1 sequence (P20350 1-355): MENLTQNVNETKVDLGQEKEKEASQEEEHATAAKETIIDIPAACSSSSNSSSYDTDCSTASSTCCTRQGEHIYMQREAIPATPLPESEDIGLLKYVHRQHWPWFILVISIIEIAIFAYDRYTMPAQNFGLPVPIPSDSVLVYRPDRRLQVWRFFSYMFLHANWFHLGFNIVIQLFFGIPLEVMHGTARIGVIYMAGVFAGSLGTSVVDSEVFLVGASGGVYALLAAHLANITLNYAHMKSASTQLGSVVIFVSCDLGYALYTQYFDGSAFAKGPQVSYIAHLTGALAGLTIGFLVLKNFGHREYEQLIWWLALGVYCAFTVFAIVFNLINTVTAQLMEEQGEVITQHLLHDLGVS
Procedure: COS cells were grown in DMEM medium (supplemented with 10% foetal calf serum), and transfected with FuGENE 6 Transfection Reagent (Roche). Cells were transfected in 35 mm culture wells with 25-250 ng of each construct and empty plasmid to bring the total DNA to 1 μg per well. 24-30 hours post-transfection the medium was replaced with serum-free medium; this was harvested 24 hours later and cells were lysed in SDS-sample buffer. GFP was detected in conditioned medium and cell lysates by western blot with a rabbit polyclonal antibody. For some experiments the serum-free medium was supplemented with the metalloprotease inhibitor batimastat (British Biotech) or ilomostat (Calbiochem). Cells were transfected as standard with 1 ng of Rhomboid-1 DNA (in 1 μg total DNA) and were then incubated in serum-free medium for 24 hours. The medium was then replaced with 0.5 ml serum free medium containing protease inhibitor at the indicated concentration and incubated for 1 hour. After 1 hour, the medium was collected, cleared by centrifugation, dialysed overnight against several changes of water and lyophilised. The resulting pellets were re-suspended in SDS sample buffer, boiled and analysed by Western blot. Transfections with a secreted form of Spitz were used in parallel to control for non-specific toxicity of the protease inhibitors or general inhibition of the secretory pathway. The proteolytic cleavage assay was recapitulated in a mammalian tissue culture system. Spitz was tagged with GFP near its N-terminus and transiently expressed in COS cells, in the presence or absence of Star and/or Rhomboid-1. The accumulation of the soluble extracellular fragment of GFP-Spitz in the cell medium was then measured by western blot.

[1] = test system: artificially truncated form of Spitz; assay: Control: expression or secretion of an artificially truncated (secreted) form of Spitz; assay type: cell-based, Drosophila; settings: this concentration (10-100:M)
Procedure: Cells were transfected as standard with 1 ng of Rhomboid-1 DNA (in 1 μg total DNA) and were then incubated in serum-free medium for 24 hours. The medium was then replaced with 0.5 ml serum free medium containing protease inhibitor at the indicated concentration and incubated for 1 hour. After 1 hour, the medium was collected, cleared by centrifugation, dialysed overnight against several changes of water and lyophilised. The resulting pellets were re-suspended in SDS sample buffer, boiled and analysed by Western blot. Transfections with a secreted form of Spitz were used in parallel to control for non-specific toxicity of the protease inhibitors or general inhibition of the secretory pathway.

[2] = test system: uncleavable Spitz-TGFα chimera (Spitz with residues 140-160 replaced by the equivalent residues from TGFα, with the TGFα C-terminus)
[3] = test system: uncleavable Spitz-TGFα chimera with Spitz residue G143 restored in the TGFα TMD
[4] = biological target: uncleavable Spitz-TGFα chimera (Spitz with residues 140-160 replaced by the equivalent residues from TGFα, with the TGFα C-terminus); remark: listed apart in the source
[5] = biological target: uncleavable Spitz-TGFα chimera with Spitz residue G143 restored in the TGFα TMD; remark: listed apart in the source
[6] = biological target: human TGFα (EGFP inserted between residues 32 and 33)
Drosophila Delta, P10041 = biological target: T2, Drosophila Delta, P10041
T2 chain: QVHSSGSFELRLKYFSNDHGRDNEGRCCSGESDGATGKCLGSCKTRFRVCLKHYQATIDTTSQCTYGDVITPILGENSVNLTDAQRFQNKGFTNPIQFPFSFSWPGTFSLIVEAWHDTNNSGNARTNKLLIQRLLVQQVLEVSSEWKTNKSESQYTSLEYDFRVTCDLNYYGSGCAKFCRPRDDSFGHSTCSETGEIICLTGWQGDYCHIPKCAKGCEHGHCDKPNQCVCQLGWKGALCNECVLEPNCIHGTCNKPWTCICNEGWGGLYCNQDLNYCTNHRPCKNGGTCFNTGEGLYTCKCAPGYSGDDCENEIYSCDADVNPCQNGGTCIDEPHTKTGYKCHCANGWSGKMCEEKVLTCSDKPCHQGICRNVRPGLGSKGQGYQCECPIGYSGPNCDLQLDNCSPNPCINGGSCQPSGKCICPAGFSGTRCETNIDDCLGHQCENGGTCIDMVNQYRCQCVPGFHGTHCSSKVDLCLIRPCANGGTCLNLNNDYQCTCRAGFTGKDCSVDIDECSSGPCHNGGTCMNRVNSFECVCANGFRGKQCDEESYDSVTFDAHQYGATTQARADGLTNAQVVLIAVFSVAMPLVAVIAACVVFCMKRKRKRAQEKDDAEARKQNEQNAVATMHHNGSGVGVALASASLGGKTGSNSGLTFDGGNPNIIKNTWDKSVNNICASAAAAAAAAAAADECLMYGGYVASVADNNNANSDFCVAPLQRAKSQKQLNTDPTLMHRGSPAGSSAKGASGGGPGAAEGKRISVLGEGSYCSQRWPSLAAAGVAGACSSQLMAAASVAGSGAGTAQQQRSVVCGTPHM

[7] = biological target: T3, Drosophila EGF receptor, P04412
T3 chain: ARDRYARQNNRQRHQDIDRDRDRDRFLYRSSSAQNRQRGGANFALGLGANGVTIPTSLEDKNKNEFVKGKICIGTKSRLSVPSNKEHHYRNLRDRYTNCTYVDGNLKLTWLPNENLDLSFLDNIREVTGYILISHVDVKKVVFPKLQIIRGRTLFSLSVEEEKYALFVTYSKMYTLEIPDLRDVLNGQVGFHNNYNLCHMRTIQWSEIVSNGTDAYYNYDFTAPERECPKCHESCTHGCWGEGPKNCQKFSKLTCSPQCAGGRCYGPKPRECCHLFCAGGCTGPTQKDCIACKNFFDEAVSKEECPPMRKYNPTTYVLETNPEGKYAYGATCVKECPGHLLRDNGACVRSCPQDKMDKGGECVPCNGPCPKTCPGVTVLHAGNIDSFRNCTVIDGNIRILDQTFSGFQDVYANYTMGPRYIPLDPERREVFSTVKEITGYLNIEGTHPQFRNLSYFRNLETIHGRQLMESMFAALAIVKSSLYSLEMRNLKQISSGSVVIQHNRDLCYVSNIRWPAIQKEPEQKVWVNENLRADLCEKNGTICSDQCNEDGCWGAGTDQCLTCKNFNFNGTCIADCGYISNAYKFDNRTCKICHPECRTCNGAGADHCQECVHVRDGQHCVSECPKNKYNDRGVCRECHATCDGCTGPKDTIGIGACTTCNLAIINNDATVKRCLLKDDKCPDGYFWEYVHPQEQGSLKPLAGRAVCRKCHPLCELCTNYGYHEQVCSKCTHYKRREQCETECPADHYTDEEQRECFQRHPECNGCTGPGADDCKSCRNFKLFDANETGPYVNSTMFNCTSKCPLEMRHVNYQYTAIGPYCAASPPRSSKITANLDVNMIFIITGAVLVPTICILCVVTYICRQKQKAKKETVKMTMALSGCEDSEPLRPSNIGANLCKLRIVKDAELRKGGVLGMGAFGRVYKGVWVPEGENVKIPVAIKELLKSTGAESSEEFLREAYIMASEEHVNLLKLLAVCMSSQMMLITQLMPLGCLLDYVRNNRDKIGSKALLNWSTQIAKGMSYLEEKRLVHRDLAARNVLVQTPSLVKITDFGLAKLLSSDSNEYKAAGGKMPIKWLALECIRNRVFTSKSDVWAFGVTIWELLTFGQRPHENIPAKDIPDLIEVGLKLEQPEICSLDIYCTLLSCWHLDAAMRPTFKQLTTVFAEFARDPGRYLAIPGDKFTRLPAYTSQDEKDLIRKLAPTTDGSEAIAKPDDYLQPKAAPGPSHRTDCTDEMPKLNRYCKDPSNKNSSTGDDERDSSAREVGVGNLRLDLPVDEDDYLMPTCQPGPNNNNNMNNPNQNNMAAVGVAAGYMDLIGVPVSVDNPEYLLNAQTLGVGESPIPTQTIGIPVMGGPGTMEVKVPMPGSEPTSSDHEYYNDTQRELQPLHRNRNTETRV

For O=c1oc(Cl)c(Cl)c2ccccc12 [3,4-DCI], the “Rhomboid activity (summary statement)” value (Rhomboid-1) was “inhibit”, the “inhibition of Rhomboid activity, standard cleavage assay with panel of inhibitors” value (from here on “inhibition of Rhomboid activity”) (Rhomboid-1; 10-100:M) was “strongly inhibited” and the “expression or secretion of an artificially truncated form of Spitz (extracellular domain)” value [1] was “did not effect”.

In the case of CCOC(=O)[C@H]1O[C@@H]1C(=O)N[C@@H](CC(C)C)C(=O)NCCC(C)C [E64d], the “inhibition of Rhomboid activity” value (Rhomboid-1; 50:M) is reported as “No inhibition”.

In the case of O=C(O)/C(S)=C/c1ccc(I)cc1 [PD150606], the “inhibition of Rhomboid activity” value (Rhomboid-1; concentration not given) is reported as “No inhibition”.

For Cc1ccc(S(=O)(=O)N[C@@H](Cc2ccccc2)C(=O)CCl)cc1 [TPCK], the “Rhomboid activity (summary statement)” value (Rhomboid-1) was “inhibit”, the “inhibition of Rhomboid activity” value (Rhomboid-1; 10-100:M) was “strongly inhibited” and the “expression or secretion of an artificially truncated form of Spitz (extracellular domain)” value [1] was “did not effect”.

With CCCC[C@@H](C=O)NC(=O)[C@H](CC(C)C)NC(=O)[C@H](CC(C)C)NC(=O)OCc1ccccc1 [gamma secretase inhibitor I] (Cbz-Leu-Leu-[Nle]-aldehyde) the “inhibition of Rhomboid activity” value (Rhomboid-1; 25:M) was “No inhibition”.

For CNC(=O)[C@H](Cc1c[nH]c2ccccc12)NC(=O)[C@@H](CC(=O)NO)CC(C)C [ilomostat], the “Rhomboid-1-dependent cleavage of Spitz” value (Rhomboid-1; concentration not given) was “insensitive” and the “inhibition of Rhomboid activity” value (Rhomboid-1; concentration not given) was “No inhibition”.

For CC(=O)N[C@@H](CC(C)C)C(=O)N[C@@H](CC(C)C)C(=O)N[C@H](C=O)CCCNC(=N)N [leupeptin], the “inhibition of Rhomboid activity” value (Rhomboid-1; 100:M) was “No inhibition”.

CC(C)CC(=O)N[C@H](C(=O)N[C@H](C(=O)N[C@@H](CC(C)C)[C@@H](O)CC(=O)N[C@@H](C)C(=O)N[C@@H](CC(C)C)[C@@H](O)CC(=O)O)C(C)C)C(C)C [pepstatin A] (Isovaleryl-VV[Sta]A[Sta]-OH) was tested, and the “inhibition of Rhomboid activity” value (Rhomboid-1; 50:M) was “No inhibition”.

In the case of Drosophila Rhomboid-2, the “protease activity against the uncleavable form of Spitz” value (“protease activity … of Spitz” for short) [2] is reported as “they could not cleave the TGFα TMD” and the “protease activity against the TGFα TMD with a restored G143” value (shortened to “protease activity against the TGFα TMD”) [3] is reported as “did cleave when only G143 was added back”.

For Drosophila Rhomboid-3, the “protease activity … of Spitz” value [2] was “they could not cleave the TGFα TMD” and the “protease activity against the TGFα TMD” value [3] was “did cleave when only G143 was added back”.

B1: Human RHBDL2 (protein)
chain: MNLNMGREMKEELEEEEKMREDGGGKDRAKSKKVHRIVSKWMLPEKSRGTYLERANCFPPPVFIISISLAELAVFIYYAVWKPQKQWITLDTGILESPFIYSPEKREEAWRFISYMLVHAGVQHILGNLCMQLVLGIPLEMVHKGLRVGLVYLAGVIAGSLASSIFDPLRYLVGASGGVYALMGGYFMNVLVNFQEMIPAFGIFRLLIIILIIVLDMGFALYRRFFVPEDGSPVSFAAHIAGGFAGMSIGYTVFSCFDKALLKDPRFWIAIAAYLACVLFAVFFNIFLSPAN
With B1 the “protease activity … of Spitz” value [4] was “they could not cleave the TGFα TMD” and the “protease activity against the TGFα TMD” value [5] was “did cleave when only G143 was added back”.

B2: Drosophila Rhomboid-1 (triple HA tag at the N-terminus) (protein)
chain: MENPTQNVNETKVDLGQEKEKEASQEEEHATAAKETIIDIPAACSSSSNSSSYDTDCSTASSTCCTRQGEHIYMQREAIPATPLPESEDIGLLKYVHRQHWPWFILVISIIEIAIFAYDRYTMPAQNFGLPVPIPSDSVLVYRPDRRLQVWRFFSYMFLHANWFHLGFNIVIQLFFGIPLEVMHGTARIGVIYMAGVFAGSLGTSVVDSEVFLVGASGGVYALLAAHLANITLNYAHMKSASTQLGSVVIFVSCDLGYALYTQYFDGSAFAKGPQVSYIAHLTGALAGLTIGFLVLKNFGHREYEQLIWWLALGVYCAFTVFAIVFNLINTVTAQLMEEQGEVITQHLLHDLGVS
With B2 the “cleavage of Spitz/TGFα TMD chimeras, without Star, with batimastat” value [4] was “replacing the remaining 5 residues (residues 140-160) abolished cleavage”, the “cleavage of type-I membrane proteins” value [6] was “Rhomboid-1 could not cleave other type-I membrane proteins including ... human TGFα” and the “cleavage of type-I membrane proteins” value (Drosophila Delta, P10041) was “Rhomboid-1 could not cleave other type-I membrane proteins including ... Drosophila Delta”. For the same molecule, the “cleavage of type-I membrane proteins” value (human TGN38) was “Rhomboid-1 could not cleave other type-I membrane proteins including ... human TGN38”, the “cleavage of the uncleavable Spitz-TGFα chimera with single Spitz residues put back” value [5] was “substitution of only Spitz residue G143 restored cleavage of this chimeric substrate” and the “cleavage of type-I membrane proteins” value [7] was “Rhomboid-1 could not cleave other type-I membrane proteins including Drosophila EGF receptor”.

Source: patent publication US7718391B2, “Assays for identifying modulators of rhomboid polypeptides” (Medical Research Council, priority 2001, dated 2010)
